Ends that are not written are not given here.
How the values were obtained:
MHC-negative tumor cells = conditions: ref [24,27,42]; cited from earlier work
Excerpt: The interaction of ligands with TREM-1 on the cell membrane leads to dimerization of the receptor, followed by activation of the metalloprotease MMP-9 [37], cleavage, and dissociation of the exodomain from the cell surface. sTREM-1 is considered a biomarker of infection and viral diseases. Further activation of the receptor develops in two ways. Triggering cascades of tyrosine kinases leads to activation of the NFkß factor, expression of pro-inflammatory cytokines, and development of inflammatory processes. In turn, the release of cytokines leads to the appearance of ...

tumor cells (K562) = test system: tumor cells (K562); set-up: method as in printed at the place; conditions: other TREM-1 ligands, 'just as it was shown'; no ref given; cited from earlier work
TREM-1 receptor [1] = assay: Inhibition of cytotoxic activity of PBMC induced by peptide N3; type: cell-based, human; conditions: PBMC preincubated 1 h with peptide (10^−9 M), then N3 added; cytotoxicity after 6 days, K562
Description: The inhibitory and activating activities were investigated. To determine the inhibitory activity, PBMC were preincubated with the studied peptides for 1 h, then the activating peptide N3 was added, and the cytotoxic activity of lymphocytes was determined after 6 days.
(§1) For cytotoxicity tests, cells of the K562 line were cultured in 96-well plates (Luoyang Fudau Biotech Co, Luoyang, Henan, China) (6 × 10^4 per well) before the addition of lymphocytes (1.2 × 10^6 per well) and then incubated at 37 °C in an atmosphere with 5% CO2 for 3–20 h. Cytotoxicity was measured using a Cytotox 96 analysis kit (Promega, Madison, WI, USA) after 24 h of incubation in accordance with the manufacturer’s protocol. […] Polyclonal antibodies to Tag7 were obtained from ABclonal (ABclonal, Woburn, MA, USA). Monoclonal antibodies to TREM-1 were obtained from Thermo Fisher Scientific (Thermo Fisher Scientific, Waltham, MA, USA).

K562 cells = assay: Cytotoxic activity of human PBMC incubated 6 days with Tag7 peptides (single or combined), tested on K562 cells; type: cell-based; conditions: single peptide, 10^−9 M, human PBMC 6 days, then K562; n = 5
Description: The synthesized peptides were incubated with isolated human PBMC for 6 days. Thereafter, the activated lymphocytes were added to MHC-negative tumor cells of the K562 line, and their cytotoxic effect on these cells was determined.
(§2) The combined effect of these peptides stimulated the activation of cytotoxic lymphocytes. […] In addition, the induction of the cytotoxic effect of lymphocytes is TREM-1-dependent.
K562, RAW264.7 cells were cultivated in RPMI-1640 (Himedia Laboratories Private Limited, Maharashtra, India) with 2 mM L glutamine, 10% FCS (Invitrogen, Carlsbad, CA, USA), with 1% kanamycin (Thermo Fisher Scientific, Waltham, MA, USA). […] CD4+ (CD8+) T-lymphocytes were isolated from the PBMCs using the Dynabeads^TM Untouched^TM Human CD4 T Cells Kit, and NK cells were isolated from PBMC by Dynabeads^TM Untouched^TM Human NK Cells Kit according to the manufacturer’s protocol (Thermo Fisher Scientific, Waltham, MA, USA).
as §1

TREM-1 receptor [2] = assay: Inhibition of cytotoxicity induced by the sum of N9 and N15 peptides; type: cell-based, human; conditions: PBMC with N9 + N15, 6 days; K562
Description: as §2, §1

Row | Substance | stimulation of cytokines and activation of cytotoxic lymphocytes (MHC-negative tumor cells) | type of tumor cell death induced (tumor cells (K562)) | inhibition of N3-stimulated cytotoxic activity (TREM-1 receptor [1]) | activation of cytotoxic lymphocytes (K562 cells) | inhibition of cytotoxicity of the sum of N9 and N15 (TREM-1 receptor [2])
1 | Hsp70: main heat shock protein, TREM-1 ligand | not only stimulate the production of pro-inflammatory cytokines but also induce the activation of cytotoxic lymphocytes against MHC-negative tumor cells | induced apoptosis and necroptosis in tumor cells |  |  | 
2 | PASCQQQAR [N9] |  |  | inhibited the development of cytotoxic activity stimulated by peptide N3 | do not activate cytotoxic lymphocytes | 
3 | Tag7: innate immunity protein PGLYRP1; recombinant Tag7 | not only stimulate the production of pro-inflammatory cytokines but also induce the activation of cytotoxic lymphocytes against MHC-negative tumor cells | induced apoptosis and necroptosis in tumor cells |  |  | 
4 | LQVTDSGLYRCVIYHPP [LP17, reference compound] |  |  |  |  | inhibited
5 | RNVQHYHMKT [17.0] |  |  | inhibited the development of cytotoxic activity stimulated by peptide N3 | do not activate cytotoxic lymphocytes | inhibited
6 | RYVVVSHTAGSSCNT [N15] |  |  | had no inhibitory effect on the induction of the TREM-1-dependent signal | do not activate cytotoxic lymphocytes | 
7 | HMGB1: multifunctional protein, TREM-1 ligand | not only stimulate the production of pro-inflammatory cytokines but also induce the activation of cytotoxic lymphocytes against MHC-negative tumor cells | induced apoptosis and necroptosis in tumor cells |  |  | 
